Source: ChEMBL document CHEMBL4425119, “Design and Development of a Series of Potent and Selective Type II Inhibitors of CDK8” (ACS Med Chem Lett, 2016)

How the values were obtained:
[1] = Permeability across apical to basolateral side of MDCK cells; type: ADME, cell-based, Canis lupus familiaris; details: dog, read-out: permeability
[2] = Permeability across basolateral to apical side of MDCK cells; type: ADME, cell-based, Canis lupus familiaris; details: dog

Row | Structure (SMILES) | Papp A→B [1] | Papp B→A [2]
1 | CNc1nccc(N2CC[C@H](NC(=O)Nc3ccc(CN4CCN(C)CC4)c(C(F)(F)F)c3)C2)n1 | 4.1 ×10⁻⁶ cm/s | 4.5 ×10⁻⁶ cm/s
2 | CNc1nccc(N2CC[C@H](NC(=O)Nc3ccc(C)c(Cl)c3)C2)n1 | 3.9 ×10⁻⁶ cm/s | 7 ×10⁻⁶ cm/s
3 | CNc1nccc(N2CC[C@H](NC(=O)Nc3ccc(CN4CCOCC4)c(C(F)(F)F)c3)C2)n1 | 12.4 ×10⁻⁶ cm/s | 12.2 ×10⁻⁶ cm/s
4 | CNc1nccc(N2CC[C@H](NC(=O)Nc3ccc(Cl)c(C(F)(F)F)c3)C2)n1 | 3.9 ×10⁻⁶ cm/s | 4 ×10⁻⁶ cm/s
5 | CCN1CCN(Cc2ccc(NC(=O)N[C@H]3CCN(c4ccnc(NC)n4)C3)cc2C(F)(F)F)CC1 | 0.3 ×10⁻⁶ cm/s | 4.2 ×10⁻⁶ cm/s
